{"source": "paper PMC6345968", "about": "“Structural basis for species-selective targeting of Hsp90 in a pathogenic fungus” (Nature Communications, 2019)", "key": {"[1]": {"test_system": "Hsp90 in HEPG2 lysate", "conditions": "for FP signal (raw) / FP signal: HepG2 lysate; for FP signal: raw"}, "[2]": {"biological_target": "T1, Hsp90 in C. albicans (SC5314) lysate (Candida albicans, UniProt P46598)", "T1 construct": "endogenous in cells; host or cells: C. albicans SC5314 whole-cell lysate", "T1 sequence (P46598 whole entry)": "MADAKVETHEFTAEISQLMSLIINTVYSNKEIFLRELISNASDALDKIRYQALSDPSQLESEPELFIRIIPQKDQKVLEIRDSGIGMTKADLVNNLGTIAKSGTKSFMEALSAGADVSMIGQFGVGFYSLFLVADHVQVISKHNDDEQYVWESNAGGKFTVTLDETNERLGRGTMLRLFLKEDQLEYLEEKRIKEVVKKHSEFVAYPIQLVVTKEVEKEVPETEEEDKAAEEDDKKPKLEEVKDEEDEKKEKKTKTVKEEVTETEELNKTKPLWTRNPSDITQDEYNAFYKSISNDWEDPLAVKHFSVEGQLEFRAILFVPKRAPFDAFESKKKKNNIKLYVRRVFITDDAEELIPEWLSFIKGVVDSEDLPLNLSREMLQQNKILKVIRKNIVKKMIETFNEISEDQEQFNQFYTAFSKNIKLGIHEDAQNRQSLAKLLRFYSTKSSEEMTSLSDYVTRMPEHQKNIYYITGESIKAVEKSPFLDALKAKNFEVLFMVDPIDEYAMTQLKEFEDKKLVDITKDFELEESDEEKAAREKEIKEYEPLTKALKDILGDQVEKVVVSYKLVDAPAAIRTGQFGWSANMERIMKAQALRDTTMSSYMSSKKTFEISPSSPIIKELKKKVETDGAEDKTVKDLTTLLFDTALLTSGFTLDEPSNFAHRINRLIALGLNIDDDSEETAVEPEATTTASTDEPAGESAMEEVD", "experiment": "biochemical", "format": "binding", "conditions": "for FP signal: raw"}, "[3]": {"conditions": "SC5314 lysate, 0.457 nM compound"}, "[4]": {"conditions": "SC5314 lysate, 1.372 nM compound"}, "[5]": {"conditions": "SC5314 lysate, 4.115 nM compound"}, "[6]": {"conditions": "SC5314 lysate, 12.346 nM compound"}, "[7]": {"conditions": "SC5314 lysate, 37.037 nM compound"}, "[8]": {"conditions": "SC5314 lysate, 111.111 nM compound"}, "[9]": {"conditions": "SC5314 lysate, 333.333 nM compound"}, "[10]": {"conditions": "SC5314 lysate, 1000 nM compound"}, "[11]": {"conditions": "SC5314 lysate, 3000 nM compound"}}, "note": "Like-named read-outs stand apart in the source and are kept apart here."}
{"smiles": "COc1ccc(CON=C2C=CC=CC3OC3CC(C)OC(=O)c3c(O)cc(O)c(Cl)c3C2)cc1", "note": "(mixture of isomers) [compound 224]", "values": [{"measurement": "Ratio rel. GdA (HepG2)", "setting": "[1]; EC50 / EC50 of GdA in HepG2 lysate", "result": 135.257}, {"measurement": "Ratio rel. GdA (HepG2)", "setting": "[1]; EC50 relative to GdA, HEPG2 lysate", "result": 135.257}, {"measurement": "FP signal, Fxn Control", "setting": "[1]; HEPG2 lysate, log concentration 0.137354 (1.372 nM)", "result": 1.005}, {"measurement": "FP signal, Fxn Control", "setting": "[1]; HEPG2 lysate, log concentration 0.61437 (4.115 nM)", "result": 0.9952}, {"measurement": "FP signal, Fxn Control", "setting": "[1]; HEPG2 lysate, log concentration 1.09153 (12.346 nM)", "result": 1.01}, {"measurement": "FP signal, Fxn Control", "setting": "[1]; HEPG2 lysate, log concentration 1.56864 (37.037 nM)", "result": 1.014}, {"measurement": "FP signal, Fxn Control", "setting": "[1]; HEPG2 lysate, log concentration 2.04576 (111.111 nM)", "result": 1.005}, {"measurement": "FP signal, Fxn Control", "setting": "[1]; HEPG2 lysate, log concentration 2.52288 (333.333 nM)", "result": 0.9952}, {"measurement": "FP signal, Fxn Control", "setting": "[1]; HEPG2 lysate, log concentration 3 (1000 nM)", "result": 0.8702}, {"measurement": "FP signal, Fxn Control", "setting": "[1]; HEPG2 lysate, log concentration 3.47712 (3000 nM)", "result": 0.5048}, {"measurement": "FP signal, Fxn Control", "setting": "[1]; HEPG2 lysate, log concentration -0.340084 (0.457 nM)", "result": 0.9904}, {"measurement": "FP signal (raw)", "setting": "[1]; 0.457 nM", "result": 206}, {"measurement": "FP signal", "setting": "[1]; 0.457 nM compound", "result": 206}, {"measurement": "FP signal (raw)", "setting": "[1]; 1.372 nM", "result": 209}, {"measurement": "FP signal", "setting": "[1]; 1.372 nM compound", "result": 209}, {"measurement": "FP signal (raw)", "setting": "[1]; 4.115 nM", "result": 207}, {"measurement": "FP signal", "setting": "[1]; 4.115 nM compound", "result": 207}, {"measurement": "FP signal (raw)", "setting": "[1]; 12.346 nM", "result": 210}, {"measurement": "FP signal", "setting": "[1]; 12.346 nM compound", "result": 210}, {"measurement": "FP signal (raw)", "setting": "[1]; 37.037 nM", "result": 211}, {"measurement": "FP signal", "setting": "[1]; 37.037 nM compound", "result": 211}, {"measurement": "FP signal (raw)", "setting": "[1]; 111.111 nM", "result": 209}, {"measurement": "FP signal", "setting": "[1]; 111.111 nM compound", "result": 209}, {"measurement": "FP signal (raw)", "setting": "[1]; 333.333 nM", "result": 207}, {"measurement": "FP signal", "setting": "[1]; 333.333 nM compound", "result": 207}, {"measurement": "FP signal (raw)", "setting": "[1]; 1000 nM", "result": 181}, {"measurement": "FP signal", "setting": "[1]; 1000 nM compound", "result": 181}, {"measurement": "FP signal (raw)", "setting": "[1]; 3000 nM", "result": 105}, {"measurement": "FP signal", "setting": "[1]; 3000 nM compound", "result": 105}, {"measurement": "Ratio re. GdA", "setting": "[2]; EC50 relative to GdA, SC5314 lysate", "result": 79.2475}, {"measurement": "FP signal (raw)", "setting": "[2]; SC5314 lysate, 0.457 nM", "result": 204}, {"measurement": "FP signal relative to 0 nM", "setting": "[2]; [3]", "result": 1.02}, {"measurement": "FP signal", "setting": "[2]; [3]", "result": 204}, {"measurement": "FP signal (raw)", "setting": "[2]; SC5314 lysate, 1.372 nM", "result": 206}, {"measurement": "FP signal relative to 0 nM", "setting": "[2]; [4]", "result": 1.03}, {"measurement": "FP signal", "setting": "[2]; [4]", "result": 206}, {"measurement": "FP signal (raw)", "setting": "[2]; SC5314 lysate, 4.115 nM", "result": 205}, {"measurement": "FP signal relative to 0 nM", "setting": "[2]; [5]", "result": 1.025}, {"measurement": "FP signal", "setting": "[2]; [5]", "result": 205}, {"measurement": "FP signal (raw)", "setting": "[2]; SC5314 lysate, 12.346 nM", "result": 200}, {"measurement": "FP signal relative to 0 nM", "setting": "[2]; [6]", "result": 1}, {"measurement": "FP signal", "setting": "[2]; [6]", "result": 200}, {"measurement": "FP signal (raw)", "setting": "[2]; SC5314 lysate, 37.037 nM", "result": 198}, {"measurement": "FP signal relative to 0 nM", "setting": "[2]; [7]", "result": 0.99}, {"measurement": "FP signal", "setting": "[2]; [7]", "result": 198}, {"measurement": "FP signal (raw)", "setting": "[2]; SC5314 lysate, 111.111 nM", "result": 193}, {"measurement": "FP signal relative to 0 nM", "setting": "[2]; [8]", "result": 0.965}, {"measurement": "FP signal", "setting": "[2]; [8]", "result": 193}, {"measurement": "FP signal (raw)", "setting": "[2]; SC5314 lysate, 333.333 nM", "result": 171}, {"measurement": "FP signal relative to 0 nM", "setting": "[2]; [9]", "result": 0.855}, {"measurement": "FP signal", "setting": "[2]; [9]", "result": 171}, {"measurement": "FP signal (raw)", "setting": "[2]; SC5314 lysate, 1000 nM", "result": 116}, {"measurement": "FP signal relative to 0 nM", "setting": "[2]; [10]", "result": 0.58}, {"measurement": "FP signal", "setting": "[2]; [10]", "result": 116}, {"measurement": "FP signal (raw)", "setting": "[2]; SC5314 lysate, 3000 nM", "result": 52}, {"measurement": "FP signal relative to 0 nM", "setting": "[2]; [11]", "result": 0.26}, {"measurement": "FP signal", "setting": "[2]; [11]", "result": 52}, {"measurement": "HepG2/SC5314", "setting": "[2]; ratio of GdA-normalized EC50s, human over fungal lysate", "result": 1.707}, {"measurement": "HepG2/SC5314", "setting": "[2]; ratio of GdA-relative EC50 ratios, HepG2 over SC5314", "result": 1.707}]}
